US11180463B2, “Thiazole inner salt compounds, and preparation methods and uses thereof” (Institute of Pharmacology and Toxicology Academy of …, priority 2013, dated 2021)
Where “and” joins values, the source holds several entries; their conditions need not be identical. Equal entries are not always repeated. Structures can show the parent of a compound that is named as a salt. Where two headings read alike, the source gives them in different places.

What was measured:
[1] = Accelerated stability test (RT40° C., RH75%); assay type: physicochemical; settings: for Purity* (%) / Weight gain (%) / Appearance and color: RT40° C., RH75%; for Accelerated test, 3 months: appearance after 3 months at 40° C., humidity 75%, three batches
Description: Three batches of sample (prepared according to Example 2) were taken according to the Chinese Pharmacopoeia, 2010 Edition, packaged like packaging for sale (high-density polyethylene bags were used for drug packaging), placed under conditions of RT40° C., RH75% (NaCl saturated solution) to carry out accelerated test, after 1, 2, 3, 6 months, sampled for observation of the compound of Formula I and the compound of Formula A, compared to the data of the 0th day, and the results were shown in Table 1 and Table 2.
One batches of sample as prepared according to Example 3 were taken, packaged like packaging for sale (high-density polyethylene bags were used for drug packaging), placed under conditions of RT40° C., RH75% (NaCl saturated solution), after 1, 2, 3 months, sampled and compared to the data of the 0th day, and the results were shown in Table 3.
Three batches of sample of the compound of Formula A were taken according to the Chinese Pharmacopoeia, 2010 Edition, packaged like packaging for sale (high-density polyethylene bags were used for drug packaging), placed under conditions of RT40° C., RH75% (NaCl saturated solution), after 1, 2, 3 months, sampled and compared to the data of the 0th day, and the results were shown in Table 1 and Table 4.

[2] = test system: rats with diabetes accompanied by hypertension; test: 24 h urine volume/water intake in rats with diabetes accompanied by hypertension; assay type: in vivo; settings: 3rd week
Description: In the third week of administration, the rats of each group were solely placed and fed in metabolism cage, and the water intake and urine volume within 24 hours on the 19th, 20th and 21st day were recorded.
In the 3rd week of administering the compound of Example 2, Vurine/Vwater-intake values of rats in 24 hours were calculated.

[3] = test system: rats with diabetes accompanied by hypertension; test: Blood pressure monitoring, compound of Example 2 alone (Example 7); assay type: in vivo; settings: after 4 weeks
[4] = test system: RBC surface cross-linked IgG; test: In vitro breaking erythrocytic surface cross-linked IgG (ELISA, lytic rate); assay type: cell-based; settings: RBC of 16 weeks diabetic rats, 37° C., 16-18 h
Text: Because erythrocytic surface cross-linked IgG is a typical AGEs cross-linked structure, the determination of degree that a compound breaks erythrocytic surface cross-linked IgG is well known as a better method for evaluating the ability of the compound in breaking AGEs cross-linked structure (Bruceh. R. Wolffenbuttel, Breakers of advanced glycation end products restore large artery properties in experimental diabetes, Natl. Acad. Sci. U.S.A 1998, 95, 4630).
Method for treating blood cells: 16 weeks diabetic rats were narcotized, blood samples were got from their carotid arteries, added with heparin for anticoagulation, centrifuged at 4° C. and 1000 g for 3 min, the lower layer RBC (red blood cells) was taken; washed with 0.1 mol/L PBS (pH7.4) for 3 times, centrifuged each time at 4° C. and 1000 g for 3 min; and the lower layer RBC was used for test.
In vitro administration method: 0.1 mol/L isotonic PBS (phosphate buffer) (pH7.4) was used as negative control, each of the compounds to be tested formed solutions with different concentrations using the buffer. Into per 900 μL of solution or solvent, 100 μL RBC was added, slightly shook at 37° C. for 16-18 h; centrifuged at 1000 g, 4° C. for 3 min, the supernatant was discarded, the plate was washed with 0.1 mol/L PBS (pH7.4) for 4 times to remove residual compound; centrifuged at 1000 g, 4° C. for 3 min, the lower layer RBC was diluted in ratio of 1:100 for ELISA determination.
Procedure for determination of RBC surface cross-linked IgG content via immunoadsorption method: Multiscreen-HA 0.45 μm 96-well plate (Millipore), sealed with Superblock (300 μL/well), 37° C., 1 h; then drained under 5 mmHg of negative pressure, the whole plate was washed with PBST for 3 times, washed with 0.1M PBS (pH7.4) for twice, shaking plate each time for 1 min; added with RBC (50 μL/well) to be tested, another PBS background control well (OD0) was set; drained under negative pressure; washed with 150 μL of 0.1 mol/L PBS (pH7.4) for 4 times, shaking plate each time for 1 min. After being drained under negative pressure, the 1:500 diluted goat-anti-mouse IgG-HRP (50 μL/well) was added, stood at room temperature for 2 h, drained; washed with 0.1 mol/L PBS (pH7.4), 150 μL/well, for 3 times, shaking plate each time for 1 min; drained; added with o-phenylenediamine (OPD) substrate developing solution (100 μL/well), stood at room temperature in dark for 30 min, the reaction was terminated with 2 mol/L H2SO4 (100 μL/well); the reaction solution (150 μL/well) was sucked out quickly and transferred to a normal 96-well ELISA plate, and OD values were determined under 490 nm.
Calculation of Lytic Rates of the Compounds to be Tested: […]

long-term diabetic rats = settings: in vivo, cited from earlier work
[5] = test system: rats with diabetes accompanied by hypertension
Description: In the meantime, pure diabetes group and normal control group of the same week-age were also set. The compound of Example 2 (36 mg/kg) was dissolved in distilled water just before use, administered intragastrically, once per day, for 5 weeks.

[6] = 36 mg/kg intragastrically once per day, Mean ± SD, n = 12
[7] = no significant change vs. model

## 3-methylcarbonyloxy-4-methyl-thiazole inner salt monohydrate [Example 3]
[1]; 0th month
  Purity* (%): 99.9%
  Weight gain (%): 0%
[1]; 1st month
  Purity* (%): 99.8%
  Weight gain (%): 0.04%
[1]; 2nd month
  Purity* (%): 99.7%
  Weight gain (%): 0.06%
[1]; 3rd month
  Purity* (%): 99.7%
  Weight gain (%): 0.07%

## Cc1csc[n+]1CC(=O)[O-] (as salt: salt) [Example 2]
other
  melting point: 169 °C

## Cc1csc[n+]1CC(=O)[O-] [Example 2]
[2]; [6]
  Vurine: 318.3 ± 106.0 mL
  Vwater-intake: 375.0 ± 123.6 mL
[2]; 36 mg/kg, P < 0.01 vs. model
  Vurine/Vwater-intake: 0.86 ± 0.05
[2]; first line so headed (r8), 36 mg/kg
  Vurine/bodyweight: 0.88 ± 0.31 mL/g
[2]; second line so headed (r9), 36 mg/kg
  Vurine/bodyweight: 1.03 ± 0.34 mL/g
[3]; in comparison with the model group, P<0.01
  systolic pressure variable coefficient (CV) during time period 10:00-20:00: significantly decrease
[3]; [7]
  average heart rate during time period 10:00-20:00: 255±17 beats/min
  average pulse-pressure difference during time period 10:00-20:00: 46.5±5.7 mmHg
[4]; 1 μM
  Lytic rate (decrease of OD value, %): 27.1 ± 2.2%
[4]; 10 μM
  Lytic rate (decrease of OD value, %): 27.5 ± 2.9%
[4]; 30 μM
  Lytic rate (decrease of OD value, %): 23.2 ± 5.1%
[4]; 100 μM
  Lytic rate (decrease of OD value, %): 27.9 ± 3.0%
[1]; 0th month
  Purity* (%): 100.0% and 99.6% and 99.8%
  Weight gain (%): 0%
[1]; 1st month
  Purity* (%): 99.7% and 99.8%
  Weight gain (%): 0.11% and 0.12%
[1]; 2nd month
  Purity* (%): 99.6% and 99.2%
  Weight gain (%): 0.12% and 0.13%
[1]; 3rd month
  Purity* (%): 99.8% and 99.3%
  Weight gain (%): 0.15% and 0.14% and 0.13%
[1]; 6th month
  Purity* (%): 99.9% and 99.6% and 99.8%
  Weight gain (%): 0.18% and 0.15%
[1]
  Accelerated test, 3 months: no obvious appearance change no obvious appearance change no obvious appearance change

## Cc1csc[n+]1CC(=O)O.[Na+] [Formula A, 3-carboxymethyl-4metyl-bromothiazolium sodium salt, reference compound]
long-term diabetic rats; long-term diabetic rats
  AGEs fluorescence contents of aorta, myocardium of left ventricle and kidney: significantly reduce
long-term diabetic rats; rat
  aorta compliance of diabetic rats: improved
  cardiac output: increased
  left ventricular function: significantly improved
[1]; 0th month
  Weight gain (%): 0%
[1]; 0th month, sodium salt
  Purity* (%): 98.8% and 99.1% and 98.7%
[1]; 1st month
  Appearance and color: brown, tacky
[1]; 1st month, sodium salt
  Purity* (%): 85.1% and 82.7% and 81.6%
  Weight gain (%): 18.0% and 18.5% and 19.0%
[1]; 2nd month
  Appearance and color: dark brown,
[1]; 2nd month, sodium salt
  Purity* (%): 60.6% and 59.8% and 60.3%
  Weight gain (%): 32.6% and 33.6% and 33.8%
[1]; 3rd month
  Appearance and color: dark brown,
[1]; 3rd month, sodium salt
  Purity* (%): 51.2% and 48.5% and 54.6%
  Weight gain (%): 41.5% and 42.1% and 44.0%
[1]; listed as drawing 8, sodium salt
  Accelerated test, 3 months: caking, appearance changing into dark brown caking, appearance changing into dark brown caking, appearance changing into dark brown
[1]; sodium salt
  Accelerated test, 3 months: easy to absorb moisture, agglomerate and change color

## COC(=O)C1=C(C)NC(C)=C(C(=O)OC)C1c1ccccc1[N+](=O)[O-] [Nifedipine]
[5]; after administration for 1-5 h
  systolic pressure variable coefficient (CV): 0.047±0.017
[5]; after administration for 20 min
  ejection time (ET): 71.8 ± 4.2 ms
[5]; after administration for 1 h
  average systolic pressure: 155.2±14.9 mmHg
[5]; after administration for 1.5 h
  pressure drop ΔSBP: 25.3±9.3 mmHg
[5]; after administration for 5 h
  average pulse-pressure difference (PH): 48.1±5.1 mmHg
  average systolic pressure: 166.0±15.0 mmHg
  ejection time (ET): 81.1 ± 5.0 ms
  pressure drop ΔSBP: 15.9±9.3 mmHg
[5]; after administration for 10 h
  average pulse-pressure difference (PH): 48.7±5.2 mmHg
  average systolic pressure: 179.0±14.1 mmHg
  pressure drop ΔSBP: 1.19±3.5 mmHg
[5]; rat, in vivo
  time after administration at which the systolic pressure started to rise: 2 h
  time after which pulse-pressure difference (PH) started to rise: 1 h
  time at which ET recovered the level before administration: 5 h
